Values of other authors in US20210196621A1, “ALCOHOL-FREE BOTANICAL ORAL CARE PRODUCTS” (The Trustees of Columbia University in the City of New York, priority 2018, published 2021).

Key:
[1] = oral rinses, WO 2014/092999

Molecule	Synergistic activity with thymol and vanilla extract [1]	Synergism with botanical blend absent pomegranate extract (absent pomegranate extract)	Synergism with botanical blends containing pomegranate extract (blends containing pomegranate extract)
[H]/N=C(\N/C(=N/[H])NCCCCCCNC(=N)NC(=N)Nc1ccc(Cl)cc1)Nc1ccc(Cl)cc1 [chlorhexidine]	did not	did not show significant synergism	synergistically enhanced the antibacterial activity
PHMB	showed synergistic activity	–	–
